Assay results from PubChem BioAssay (NCI).
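1) Cells in 96-well plates. 2) Compound, 48 h, 5 concentrations. 3) Linear interpolation between surrounding doses. 4) Unreached endpoint = highest concentration. GI50 marks 50% less growth. TGI: concentration producing complete growth inhibition.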

Experiments:
Assay in all cases: NCI tumour cell line growth inhibition, 48 h
[1] = tested on: 786-0 renal
[2] = tested on: NCI-H460 lung
[3] = tested on: HL-60(TB) leukemia
[4] = tested on: MDA-MB-435
[5] = tested on: UACC-62 melanoma
[6] = tested on: COLO 205 colon
[7] = tested on: SF-295 CNS
[8] = tested on: HS 578T breast
[9] = tested on: CAKI-1 renal
[10] = tested on: MALME-3M melanoma
[11] = tested on: SK-OV-3 ovarian
[12] = tested on: SF-268 CNS
[13] = tested on: NCI-H23 lung
[14] = tested on: SK-MEL-2 melanoma
[15] = tested on: MOLT-4 leukemia
[16] = tested on: K-562 leukemia
[17] = tested on: UO-31 renal
[18] = tested on: SF-539 CNS
[19] = tested on: EKVX NSCLC
[20] = tested on: HOP-62 NSCLC
[21] = tested on: SW-620 colon
[22] = tested on: ACHN renal
[23] = tested on: PC-3 prostate
[24] = tested on: OVCAR-4 ovarian
[25] = tested on: MCF7 breast
[26] = tested on: MDA-MB-231 breast
[27] = tested on: SNB-75 CNS
[28] = tested on: TK-10 renal
[29] = tested on: HOP-92 NSCLC
[30] = tested on: NCI-H226 lung
[31] = tested on: A498 renal
[32] = tested on: HCC-2998 colon
[33] = tested on: HT29 colon
[34] = tested on: A549 NSCLC
[35] = tested on: NCI/ADR-RES ovarian
[36] = tested on: OVCAR-3 ovarian
[37] = tested on: T-47D breast
[38] = tested on: OVCAR-8 ovarian
[39] = tested on: OVCAR-5 ovarian
[40] = tested on: RXF 393 renal
[41] = tested on: SN12C renal
[42] = tested on: HCT-15 colon
[43] = tested on: UACC-257 melanoma
[44] = tested on: LOX IMVI melanoma
[45] = tested on: U251 CNS
[46] = tested on: HCT-116 colon
[47] = tested on: KM12 colon
[48] = tested on: SK-MEL-5 melanoma
[49] = tested on: SR leukemia
[50] = tested on: DU-145 prostate
[51] = tested on: SNB-19 CNS
[52] = tested on: SK-MEL-28 melanoma
[53] = tested on: M14 melanoma
[54] = tested on: BT-549 breast
[55] = tested on: NCI-H522 lung
[56] = tested on: RPMI-8226 leukemia
[57] = tested on: CCRF-CEM leukemia
[58] = tested on: IGROV1 ovarian

c1cc(N2CCCC2)c2nc(-c3[nH]ncc3Nc3ncnc4[nH]ccc34)[nH]c2c1
GI50 [1]: 34.1 nM
TGI [1]: 560 nM
GI50 [2]: 90.8 nM
TGI [2]: 416 nM
GI50 [3]: 32.6 nM
TGI [3]: 91.6 nM
GI50 [4]: 94.4 nM
TGI [4]: 511 nM
GI50 [5]: 55.4 nM
TGI [5]: 196 nM
GI50 [6]: 285 nM
TGI [6]: 2030 nM
GI50 [7]: 44.1 nM
TGI [7]: 337 nM
TGI [8]: 77.1 nM
GI50 [9]: 22 nM
TGI [9]: 253 nM
GI50 [10]: 160 nM
TGI [10]: 800 nM
GI50 [11]: 27.6 nM
TGI [11]: 586 nM
GI50 [12]: 108 nM
TGI [12]: 569 nM
GI50 [13]: 69.4 nM
TGI [13]: 680 nM
GI50 [14]: 53 nM
TGI [14]: 292 nM
GI50 [15]: 33.8 nM
TGI [15]: 4830 nM
GI50 [16]: < 11.5 nM
TGI [16]: > 35000 nM
GI50 [17]: 27.8 nM
TGI [17]: 267 nM
GI50 [18]: 20.6 nM
TGI [18]: 256 nM
GI50 [19]: 151 nM
TGI [19]: 1700 nM
GI50 [20]: 100 nM
TGI [20]: 2030 nM
GI50 [21]: 68.4 nM
TGI [21]: 548 nM
GI50 [22]: 30.2 nM
TGI [22]: 679 nM
GI50 [23]: 26.1 nM
TGI [23]: 446 nM
GI50 [24]: 146 nM
TGI [24]: 1140 nM
GI50 [25]: 80.6 nM
TGI [25]: 677 nM
GI50 [26]: 62.8 nM
TGI [26]: 418 nM
TGI [27]: 348 nM
GI50 [28]: 323 nM
TGI [28]: 1380 nM
GI50 [29]: 29.8 nM
TGI [29]: 99.9 nM
GI50 [30]: 41 nM
TGI [30]: 204 nM
GI50 [31]: 20.2 nM
TGI [31]: 55 nM
GI50 [32]: 176 nM
TGI [32]: 942 nM
GI50 [33]: 371 nM
TGI [33]: 3250 nM
GI50 [34]: 80.6 nM
TGI [34]: 455 nM
GI50 [35]: 141 nM
TGI [35]: 1260 nM
GI50 [36]: 44.1 nM
TGI [36]: 663 nM
GI50 [37]: 139 nM
TGI [37]: 5970 nM
GI50 [38]: 84.7 nM
TGI [38]: 1360 nM
GI50 [39]: 115 nM
TGI [39]: 2200 nM
GI50 [40]: 22.8 nM
TGI [40]: 92.9 nM
GI50 [41]: 54.3 nM
TGI [41]: 793 nM
GI50 [42]: 76.5 nM
TGI [42]: 584 nM
GI50 [43]: 150 nM
TGI [43]: 1110 nM
GI50 [44]: 25.4 nM
TGI [44]: 342 nM
GI50 [45]: 47.4 nM
TGI [45]: 838 nM
GI50 [46]: 25.5 nM
TGI [46]: 1610 nM
GI50 [47]: 79.3 nM
TGI [47]: 459 nM
GI50 [48]: 105 nM
TGI [48]: 424 nM
GI50 [49]: 36.2 nM
TGI [49]: 26700 nM
GI50 [50]: 85.3 nM
TGI [50]: 777 nM
GI50 [51]: 96.2 nM
TGI [51]: 1580 nM
GI50 [52]: 99.2 nM
TGI [52]: 575 nM
GI50 [53]: 49.5 nM
TGI [53]: 483 nM
GI50 [54]: 67.2 nM
TGI [54]: 736 nM
GI50 [55]: 87.3 nM
TGI [55]: 1120 nM
GI50 [56]: 254 nM
TGI [56]: 1060 nM
GI50 [57]: 28 nM
TGI [57]: 1310 nM
GI50 [58]: 39.8 nM
TGI [58]: 239 nM
